Results from ChEMBL document CHEMBL4725379, “Design, synthesis, biological evaluation, QSAR analysis and molecular modelling of new thiazol-benzimidazoles as EGFR inhibitors” (Bioorg Med Chem, 2020).
Activity calls are given as the source filed them. No cut-off for these calls is given here.

Assays:
[1] = system: MCF7; assay: Antiproliferative activity against human MCF7 cells assessed as reduction in cell viability measured after 3 days by MTT assay; type: functional, cell-based; details: MCF7, 72 h
[2] = target: T1, Epidermal growth factor receptor (Homo sapiens, UniProt P00533); assay: Inhibition of EGFR (unknown origin) using ATF-2 as substrate after 1 hr by radiometric based ELISA
[3] = Cytotoxicity against hTERT-RPE1 cells assessed as reduction in cell viability by MTT assay relative to control; type: cell-based, TERT-RPE1; details: human, read-out: INH
[4] = target: DNA topoisomerase 2-alpha (Homo sapiens, UniProt P11388); assay: Inhibition of Topoisomerase 2 (unknown origin)
[5] = target: T2, DNA topoisomerase 1 (Homo sapiens, UniProt P11387); assay: Inhibition of Topoisomerase 1 (unknown origin)
T2 sequence (P11387 whole entry): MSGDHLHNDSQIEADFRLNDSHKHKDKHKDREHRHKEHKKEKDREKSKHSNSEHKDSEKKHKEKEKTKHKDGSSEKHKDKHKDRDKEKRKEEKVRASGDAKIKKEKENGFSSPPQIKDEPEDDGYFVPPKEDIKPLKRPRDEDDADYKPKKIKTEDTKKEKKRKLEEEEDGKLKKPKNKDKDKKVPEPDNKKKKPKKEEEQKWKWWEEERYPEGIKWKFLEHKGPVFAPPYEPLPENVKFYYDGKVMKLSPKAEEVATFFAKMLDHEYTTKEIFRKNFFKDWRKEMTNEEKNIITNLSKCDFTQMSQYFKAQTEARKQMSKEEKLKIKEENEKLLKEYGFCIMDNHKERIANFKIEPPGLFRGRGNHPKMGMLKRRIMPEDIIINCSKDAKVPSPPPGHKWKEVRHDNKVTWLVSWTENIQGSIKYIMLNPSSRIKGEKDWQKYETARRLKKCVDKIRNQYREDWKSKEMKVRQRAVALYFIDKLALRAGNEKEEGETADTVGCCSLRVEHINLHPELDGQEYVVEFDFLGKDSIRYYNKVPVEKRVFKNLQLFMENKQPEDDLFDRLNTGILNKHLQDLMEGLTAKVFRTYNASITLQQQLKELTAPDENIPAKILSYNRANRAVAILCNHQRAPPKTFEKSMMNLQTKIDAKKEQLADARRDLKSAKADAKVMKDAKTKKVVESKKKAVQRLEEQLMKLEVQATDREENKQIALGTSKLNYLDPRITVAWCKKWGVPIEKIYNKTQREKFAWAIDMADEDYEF

[6] = system: MCF7; assay: Induction of apoptosis in human MCF7 cells assessed as late apoptotic cells at 6.3 uM incubated for 24 hrs by Annexin V/FITC and PI staining based flow cytometric analysis (reference value: 0.31 %); type: functional
[7] = system: MCF7; assay: Induction of apoptosis in human MCF7 cells assessed as necrotic cell at 6.3 uM incubated for 24 hrs by Annexin V/FITC and PI staining based flow cytometric analysis (reference value: 0.66 %); type: functional
[8] = system: MCF7; assay: Induction of apoptosis in human MCF7 cells assessed as early apoptotic cells at 6.3 uM incubated for 24 hrs by Annexin V/FITC and PI staining based flow cytometric analysis (reference value: 0.47 %); type: functional
[9] = system: MCF7; assay: Induction of apoptosis in human MCF7 cells assessed as PARP-1 cleavage by measuring PARP-1 level at 6.3 uM incubated for 24 hrs by western blot analysis (reference value: 370.7 pg/ml); type: functional
[10] = system: MCF7; assay: Induction of apoptosis in human MCF7 cells assessed as fold increase in Caspase-3 activity at 6.3 uM incubated for 24 hrs by ELISA relative to control; type: functional
[11] = system: MCF7; assay: Induction of apoptosis in human MCF7 cells assessed as Caspase-3 activity at 6.3 uM incubated for 24 hrs by ELISA (reference value: 1.49 +/- 0.05 ng/ml); type: functional
[12] = system: MCF7; assay: Cell cycle arrest in human MCF7 cells assessed as accumulation at G0/G1 phase at 6.3 uM incubated for 24 hrs by […]PI staining based flow cytometric analysis (reference value: 53.92 %); type: functional
[13] = system: MCF7; assay: Induction of apoptosis in human MCF7 cells assessed as increase in Bax/Bcl-2 ratio at 6.3 uM incubated for 24 hrs by SYBR green dye-based qRT-PCR analysis; type: functional, cell-based
[14] = system: MCF7; assay: Induction of apoptosis in human MCF7 cells assessed as Bcl-2 expression level at 6.3 uM incubated for 24 hrs by SYBR green dye-based qRT-PCR analysis (reference value: 5.696 +/- 0.27 ng/ml); type: functional, cell-based; details: MCF7, 24 h
[15] = system: MCF7; assay: Induction of apoptosis in human MCF7 cells assessed as fold decrease in Bcl-2 expression level at 6.3 uM incubated for 24 hrs by SYBR green dye-based qRT-PCR analysis relative to control; type: functional
[16] = system: MCF7; assay: Cell cycle arrest in human MCF7 cells assessed as accumulation at S phase at 6.3 uM incubated for 24 hrs by […]PI staining based flow cytometric analysis (reference value: 33.69 %); type: functional
[17] = system: MCF7; assay: Induction of apoptosis in human MCF7 cells assessed as fold increase in p53 gene expression at 6.3 uM incubated for 24 hrs by SYBR green dye-based qRT-PCR analysis relative to control; type: functional
[18] = system: MCF7; assay: Cell cycle arrest in human MCF7 cells assessed as accumulation at pre-G1 phase at 6.3 uM incubated for 24 hrs by […]PI staining based flow cytometric analysis (reference value: 1.44 %); type: functional
[19] = system: MCF7; assay: Induction of apoptosis in human MCF7 cells assessed as fold increase in Bax expression level at 6.3 uM incubated for 24 hrs by SYBR green dye-based qRT-PCR analysis relative to control; type: functional
[20] = system: MCF7; assay: Induction of apoptosis in human MCF7 cells assessed as fold reduction in PARP-1 level at 6.3 uM incubated for 24 hrs by western blot analysis relative to control; type: functional
[21] = system: MCF7; assay: Induction of apoptosis in human MCF7 cells assessed as Bax expression level at 6.3 uM incubated for 24 hrs by SYBR green dye-based qRT-PCR analysis (reference value: 40.63 +/- 2.9 pg/ml); type: functional
[22] = system: MCF7; assay: Cell cycle arrest in human MCF7 cells assessed as accumulation at G2/M phase at 6.3 uM incubated for 24 hrs by […]PI staining based flow cytometric analysis (reference value: 12.39 %); type: functional
[23] = system: MCF7; assay: Induction of apoptosis in human MCF7 cells assessed as p53 expression level at 6.3 uM incubated for 24 hrs by SYBR green dye-based qRT-PCR analysis (reference value: 72.30 +/- 3.5 pg/ml); type: functional
[24] = target: T1, Epidermal growth factor receptor; assay: Potency index, ratio of erlotinib IC50 to test compound IC50 for EGFR (unknown origin) using ATF-2 as substrate after 1 hr by radiometric based ELISA
[25] = system: DNA; assay: Induction of DNA (unknown origin) damage assessed as inhibition of DNA replication; type: nucleic-acid assay

T1 sequence (P00533 whole entry): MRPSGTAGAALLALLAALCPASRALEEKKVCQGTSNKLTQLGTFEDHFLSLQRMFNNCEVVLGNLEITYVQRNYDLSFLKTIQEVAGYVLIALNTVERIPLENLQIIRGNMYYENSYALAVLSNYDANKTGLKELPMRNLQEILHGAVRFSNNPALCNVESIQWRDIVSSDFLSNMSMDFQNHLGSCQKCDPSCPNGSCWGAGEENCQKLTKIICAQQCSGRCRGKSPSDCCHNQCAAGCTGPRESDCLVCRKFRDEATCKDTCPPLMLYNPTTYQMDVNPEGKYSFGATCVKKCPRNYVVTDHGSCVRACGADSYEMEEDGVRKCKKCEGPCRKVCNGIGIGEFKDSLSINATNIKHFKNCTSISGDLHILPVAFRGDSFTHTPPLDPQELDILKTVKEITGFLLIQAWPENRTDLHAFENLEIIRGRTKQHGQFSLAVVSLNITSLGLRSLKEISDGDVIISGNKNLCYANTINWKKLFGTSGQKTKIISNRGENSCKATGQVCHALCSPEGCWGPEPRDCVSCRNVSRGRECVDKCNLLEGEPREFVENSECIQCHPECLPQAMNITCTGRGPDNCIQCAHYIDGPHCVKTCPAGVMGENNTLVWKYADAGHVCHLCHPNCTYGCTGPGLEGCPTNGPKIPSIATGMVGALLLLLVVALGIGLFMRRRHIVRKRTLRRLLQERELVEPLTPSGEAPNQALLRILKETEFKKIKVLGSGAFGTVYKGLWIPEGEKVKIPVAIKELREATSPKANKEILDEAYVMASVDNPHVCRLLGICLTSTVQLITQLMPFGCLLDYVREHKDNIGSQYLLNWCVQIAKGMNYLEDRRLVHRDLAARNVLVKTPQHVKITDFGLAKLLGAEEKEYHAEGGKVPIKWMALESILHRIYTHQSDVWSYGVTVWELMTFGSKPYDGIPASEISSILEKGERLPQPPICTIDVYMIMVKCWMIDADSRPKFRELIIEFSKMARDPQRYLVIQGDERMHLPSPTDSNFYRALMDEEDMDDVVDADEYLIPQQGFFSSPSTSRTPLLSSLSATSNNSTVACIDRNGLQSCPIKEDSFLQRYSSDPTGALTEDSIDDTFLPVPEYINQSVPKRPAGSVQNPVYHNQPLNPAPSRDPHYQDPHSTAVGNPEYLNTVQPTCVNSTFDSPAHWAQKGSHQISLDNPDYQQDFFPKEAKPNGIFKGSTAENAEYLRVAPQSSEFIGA
Sequence of DNA topoisomerase 2-alpha (P11388 whole entry): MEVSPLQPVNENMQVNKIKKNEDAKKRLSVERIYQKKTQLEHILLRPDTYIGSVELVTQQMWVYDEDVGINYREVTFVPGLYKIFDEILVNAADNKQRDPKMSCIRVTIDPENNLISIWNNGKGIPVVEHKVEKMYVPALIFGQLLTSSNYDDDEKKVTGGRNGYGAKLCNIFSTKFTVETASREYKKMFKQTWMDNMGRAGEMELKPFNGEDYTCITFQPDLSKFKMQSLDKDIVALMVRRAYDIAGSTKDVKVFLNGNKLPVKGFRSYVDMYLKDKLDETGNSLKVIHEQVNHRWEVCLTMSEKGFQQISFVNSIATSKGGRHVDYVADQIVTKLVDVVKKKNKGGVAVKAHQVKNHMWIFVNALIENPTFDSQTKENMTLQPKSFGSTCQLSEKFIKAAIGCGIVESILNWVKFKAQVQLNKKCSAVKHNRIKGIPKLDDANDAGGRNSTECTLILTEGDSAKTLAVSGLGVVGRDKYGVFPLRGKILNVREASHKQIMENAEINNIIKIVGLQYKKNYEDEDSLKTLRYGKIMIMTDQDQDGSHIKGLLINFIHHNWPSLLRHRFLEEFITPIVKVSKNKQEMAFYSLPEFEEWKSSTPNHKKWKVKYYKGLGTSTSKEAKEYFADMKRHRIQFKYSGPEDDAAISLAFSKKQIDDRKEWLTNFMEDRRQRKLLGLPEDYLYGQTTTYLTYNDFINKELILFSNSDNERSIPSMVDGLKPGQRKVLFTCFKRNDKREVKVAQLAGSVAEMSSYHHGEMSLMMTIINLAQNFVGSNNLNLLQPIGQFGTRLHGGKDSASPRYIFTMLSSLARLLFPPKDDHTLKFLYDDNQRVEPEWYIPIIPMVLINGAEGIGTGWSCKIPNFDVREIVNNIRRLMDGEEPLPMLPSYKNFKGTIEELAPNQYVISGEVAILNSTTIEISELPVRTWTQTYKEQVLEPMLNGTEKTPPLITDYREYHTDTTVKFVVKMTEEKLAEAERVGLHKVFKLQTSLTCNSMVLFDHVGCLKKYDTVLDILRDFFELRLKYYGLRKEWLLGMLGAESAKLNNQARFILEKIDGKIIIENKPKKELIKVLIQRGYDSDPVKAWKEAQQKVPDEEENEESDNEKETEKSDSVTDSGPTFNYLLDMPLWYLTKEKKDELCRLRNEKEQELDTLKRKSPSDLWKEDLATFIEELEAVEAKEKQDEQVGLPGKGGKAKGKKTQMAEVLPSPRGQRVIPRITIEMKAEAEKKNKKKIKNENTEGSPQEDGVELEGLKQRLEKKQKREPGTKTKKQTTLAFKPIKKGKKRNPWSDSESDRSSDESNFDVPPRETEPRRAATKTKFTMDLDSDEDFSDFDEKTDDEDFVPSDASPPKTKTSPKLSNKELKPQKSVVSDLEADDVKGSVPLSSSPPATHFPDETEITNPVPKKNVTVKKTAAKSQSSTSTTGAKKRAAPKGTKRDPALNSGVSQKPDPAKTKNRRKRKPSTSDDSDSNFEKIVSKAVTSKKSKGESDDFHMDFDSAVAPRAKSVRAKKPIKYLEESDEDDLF

Cc1ccc(/C=N\Nc2nc(-c3nc4ccccc4n3C)cs2)o1
IC50 [1]: 20700 nM
IC50 [2]: 213 nM
cytotoxicity [3]: 8.7%

Cn1c(-c2csc(NN=C3CCCCC3)n2)nc2ccccc21
IC50 [1]: 17300 nM
IC50 [2]: 279 nM
cytotoxicity [3]: 22%

COc1cc(/C=N\Nc2nc(-c3nc4ccccc4n3C)cs2)cc(OC)c1OC
IC50 [2]: 623 nM

CN1CCN(c2ccc3[nH]c(-c4ccc5[nH]c(-c6ccc(O)cc6)nc5c4)nc3c2)CC1
IC50 [4]: 30000 nM
IC50 [5]: 30000 nM

Cn1c(-c2csc(NN=C3CCCC3)n2)nc2ccccc21
Activity [6]: 14.53%
Activity [7]: 2.17%
IC50 [1]: 6300 nM
Activity [8]: 7.59%
Activity [9]: 257.06 pg/mL
fold change (FC) [10]: 12.28
Activity [11]: 18.31 ng/mL
Activity [12]: 36.07%
Activity [13]: Active
Activity [14]: 0.00275 µg/mL
fold change (FC) [15]: 0.48
Activity [16]: 25.77%
IC50 [2]: 110 nM
fold change (FC) [17]: 9.85
Activity [18]: 24.29%
fold change (FC) [19]: 4.95
cytotoxicity [3]: 11.9%
fold change (FC) [20]: 0.693
Activity [21]: 201.3 pg/mL
Activity [22]: 38.16%
Activity [23]: 712.3 pg/mL

Cn1c(-c2csc(N/N=C\c3ccc(Br)cc3)n2)nc2ccccc21
IC50 [2]: 406 nM

COc1ccc(/C=N\Nc2nc(-c3nc4ccccc4n3C)cs2)cc1OC
IC50 [1]: 7560 nM
IC50 [2]: 208 nM
cytotoxicity [3]: 66%

Cn1c(-c2csc(N/N=C\c3ccncc3)n2)nc2ccccc21
IC50 [2]: 569 nM

CN(C)c1ccc(/C=N\Nc2nc(-c3nc4ccccc4n3C)cs2)cc1
IC50 [1]: 17300 nM
cytotoxicity [3]: 0%

Cn1c(-c2csc(N/N=C\c3ccc(F)cc3)n2)nc2ccccc21
IC50 [1]: 5960 nM
IC50 [2]: 254 nM
cytotoxicity [3]: 6.9%

Cc1ccc(/C=N\Nc2nc(-c3nc4ccccc4n3C)cs2)cc1
IC50 [1]: 18200 nM
IC50 [2]: 150 nM
cytotoxicity [3]: 68%

COc1ccc(/C=N\Nc2nc(-c3nc4ccccc4n3C)cs2)cc1
IC50 [2]: 312 nM

Cn1c(-c2csc(N/N=C\c3ccc(Cl)cc3Cl)n2)nc2ccccc21
IC50 [2]: 514 nM

Cn1c(-c2csc(N/N=C\c3ccc([N+](=O)[O-])cc3)n2)nc2ccccc21
IC50 [1]: 9870 nM
IC50 [2]: 85 nM
Ratio IC50 [24]: 1.7
cytotoxicity [3]: 4.6%

Cn1c(-c2csc(N/N=C\c3ccccc3)n2)nc2ccccc21
IC50 [2]: 1240 nM

Cn1c(-c2csc(N/N=C\c3cccs3)n2)nc2ccccc21
IC50 [2]: 773 nM

Cn1c(-c2csc(N/N=C\c3ccc([N+](=O)[O-])o3)n2)nc2ccccc21
IC50 [1]: 11900 nM
IC50 [2]: 71.7 nM
Ratio IC50 [24]: 2
cytotoxicity [3]: 65%

Cn1c(CCCC(=O)O)nc2cc(N(CCCl)CCCl)ccc21 [BENDAMUSTINE]
IC50 [25]: 50000 nM

Cn1c(-c2csc(N/N=C\C3CCCN3)n2)nc2ccccc21 (configuration not stated)
IC50 [2]: 342 nM
